Several values for one entry are separate records, joined by “and”; a condition that tells them apart may be missing. Equal entries are not always repeated.
System: rodent lifetime carcinogenesis bioassay, tumor incidence TD50
Test: carcinogenic potency in animals, long-term in vivo studies, CPDB compilation (AID 1745844)
Details: rat, inhaled

C=CCl
TD50 (strain Sprague-Dawley, males, site: extrahepatic tissue, lesion: angiosarcoma, dosed 25 weeks, study length 115 weeks): 468 mg/kg/day
TD50 (strain Sprague-Dawley, males, site: extrahepatic tissue, lesion: angiosarcoma, dosed 52 weeks, study length 123 weeks): 63 mg/kg/day
TD50 (strain Sprague-Dawley, males, site: extrahepatic tissue, lesion: angiosarcoma, dosed 52 weeks, study length 131 weeks): 14900 mg/kg/day
TD50 (strain Sprague-Dawley, males, site: extrahepatic tissue, lesion: angiosarcoma, dosed 52 weeks, study length 139 weeks): 11.7 mg/kg/day
TD50 (strain Sprague-Dawley, males, site: kidney, lesion: nephroblastoma, dosed 25 weeks, study length 139 weeks): 1940 mg/kg/day
TD50 (strain Sprague-Dawley, males, site: kidney, lesion: nephroblastoma, dosed 52 weeks, study length 123 weeks): 37.8 mg/kg/day
TD50 (strain Sprague-Dawley, males, site: kidney, lesion: nephroblastoma, dosed 52 weeks, study length 131 weeks): 2960 mg/kg/day
TD50 (strain Sprague-Dawley, males, site: kidney, lesion: nephroblastoma, dosed 52 weeks, study length 139 weeks): 28.9 mg/kg/day
TD50 (strain Sprague-Dawley, males, site: liver, lesion: angioma, dosed 25 weeks, study length 115 weeks): 580 mg/kg/day
TD50 (strain Sprague-Dawley, males, site: liver, lesion: angioma, dosed 25 weeks, study length 139 weeks): 1030 mg/kg/day
TD50 (strain Sprague-Dawley, males, site: liver, lesion: angioma, dosed 52 weeks, study length 123 weeks): 106 mg/kg/day and 54.3 mg/kg/day
TD50 (strain Sprague-Dawley, males, site: liver, lesion: angiosarcoma, dosed 25 weeks, study length 115 weeks): 871 mg/kg/day
TD50 (strain Sprague-Dawley, males, site: liver, lesion: angiosarcoma, dosed 52 weeks, study length 123 weeks): 76.7 mg/kg/day and 62.4 mg/kg/day
TD50 (strain Sprague-Dawley, males, site: liver, lesion: angiosarcoma, dosed 52 weeks, study length 130 weeks): 90 mg/kg/day
TD50 (strain Sprague-Dawley, males, site: liver, lesion: angiosarcoma, dosed 52 weeks, study length 131 weeks): 875 mg/kg/day
TD50 (strain Sprague-Dawley, males, site: liver, lesion: angiosarcoma, dosed 52 weeks, study length 139 weeks): 75.8 mg/kg/day
TD50 (strain Sprague-Dawley, males, site: liver, lesion: hepatocellular carcinoma, dosed 52 weeks, study length 130 weeks): 40.8 mg/kg/day
TD50 (strain Sprague-Dawley, males, site: liver, lesion: hepatoma, dosed 52 weeks, study length 123 weeks): 152 mg/kg/day
TD50 (strain Sprague-Dawley, males, site: liver, lesion: hepatoma, dosed 52 weeks, study length 131 weeks): 13400 mg/kg/day
TD50 (strain Sprague-Dawley, males, site: liver, lesion: several types, types named in the paper, dosed 52 weeks, study length 130 weeks): 294 mg/kg/day
TD50 (strain Sprague-Dawley, males, site: pituitary gland, lesion: one or several types, types not named, dosed 52 weeks, study length 130 weeks): 138 mg/kg/day
TD50 (strain Wistar, females, site: Zymbal's gland, lesion: squamous-cell carcinoma, dosed 52 weeks, study length 52 weeks): 857 mg/kg/day
TD50 (strain Wistar, females, site: liver, lesion: angiosarcoma, dosed 52 weeks, study length 52 weeks): 209 mg/kg/day
TD50 (strain Wistar, females, site: liver, lesion: hepatocellular carcinoma, dosed 52 weeks, study length 52 weeks): 1810 mg/kg/day
TD50 (strain Wistar, females, site: liver, lesion: neoplastic nodule, dosed 52 weeks, study length 52 weeks): 1810 mg/kg/day
TD50 (strain Wistar, females, site: lung, lesion: papillary adenoma, dosed 52 weeks, study length 52 weeks): 1810 mg/kg/day
TD50 (strain Wistar, females, site: nasal cavity, lesion: olfactory epithelial carcinoma, dosed 52 weeks, study length 52 weeks): 276 mg/kg/day
TD50 (strain Wistar, males, site: Zymbal's gland, lesion: carcinoma, dosed 52 weeks, study length 125 weeks): 3540 mg/kg/day
TD50 (strain Wistar, males, site: Zymbal's gland, lesion: squamous-cell carcinoma, dosed 52 weeks, study length 52 weeks): 330 mg/kg/day
TD50 (strain Wistar, males, site: any site (literature study), lesion: several types, types named in the paper, dosed 52 weeks, study length 78 weeks): 5.44 mg/kg/day
TD50 (strain Wistar, males, site: any site (literature study), lesion: several types, types named in the paper, dosed 52 weeks, study length 125 weeks): 1130 mg/kg/day
TD50 (strain Wistar, males, site: brain, lesion: neuroblastoma, dosed 52 weeks, study length 125 weeks): 4140 mg/kg/day
TD50 (strain Wistar, males, site: brain, lesion: one or several types, types not named, dosed 52 weeks, study length 78 weeks): 5820 mg/kg/day
TD50 (strain Wistar, males, site: extrahepatic tissue, lesion: angioma, dosed 52 weeks, study length 125 weeks): 72700 mg/kg/day
TD50 (strain Wistar, males, site: extrahepatic tissue, lesion: angioma, dosed 52 weeks, study length 127 weeks): 0.37 mg/kg/day
TD50 (strain Wistar, males, site: extrahepatic tissue, lesion: angiosarcoma, dosed 52 weeks, study length 125 weeks): 8490 mg/kg/day
TD50 (strain Wistar, males, site: extrahepatic tissue, lesion: angiosarcoma, dosed 52 weeks, study length 127 weeks): 1.05 mg/kg/day
TD50 (strain Wistar, males, site: kidney, lesion: nephroblastoma, dosed 52 weeks, study length 125 weeks): 4510 mg/kg/day
TD50 (strain Wistar, males, site: liver, lesion: angioma, dosed 52 weeks, study length 125 weeks): 3620 mg/kg/day
TD50 (strain Wistar, males, site: liver, lesion: angioma, dosed 52 weeks, study length 127 weeks): 0.654 mg/kg/day
TD50 (strain Wistar, males, site: liver, lesion: angiosarcoma, dosed 52 weeks, study length 52 weeks): 330 mg/kg/day
TD50 (strain Wistar, males, site: liver, lesion: angiosarcoma, dosed 52 weeks, study length 78 weeks): 10.2 mg/kg/day
TD50 (strain Wistar, males, site: liver, lesion: angiosarcoma, dosed 52 weeks, study length 125 weeks): 518 mg/kg/day
TD50 (strain Wistar, males, site: liver, lesion: hepatocellular carcinoma, dosed 52 weeks, study length 52 weeks): 1140 mg/kg/day
TD50 (strain Wistar, males, site: liver, lesion: hepatoma, dosed 52 weeks, study length 125 weeks): 4860 mg/kg/day
TD50 (strain Wistar, males, site: liver, lesion: hepatoma, dosed 52 weeks, study length 127 weeks): 0.728 mg/kg/day
TD50 (strain Wistar, males, site: lung, lesion: angiosarcoma, dosed 52 weeks, study length 78 weeks): 193 mg/kg/day
TD50 (strain Wistar, males, site: lung, lesion: one or several types, types not named, dosed 52 weeks, study length 78 weeks): 867 mg/kg/day
TD50 (strain Wistar, males, site: nasal cavity, lesion: olfactory epithelial carcinoma, dosed 52 weeks, study length 52 weeks): 533 mg/kg/day
carcinogen call (strain Wistar, males, site: nose, lesion: one or several types, types not named, dosed 52 weeks, study length 78 weeks): positive
TD50 (strain Wistar, males, site: skin, lesion: one or several types, types not named, dosed 52 weeks, study length 78 weeks): 5820 mg/kg/day
carcinogen call (strain Wistar, males, site: testis, lesion: one or several types, types not named, dosed 52 weeks, study length 78 weeks): positive

— PubChem BioAssay AID1745844 (Carcinogenic Potency Database (CPDB), 2022)
